We go through 1 compound from patent US7704985B2, “Treatment of irritable bowel syndrome and related bowel diseases” (The Board of Regents of the University of Texas System, priority 2002, dated 2010).

The experiment has as its system acetic acid sensitized rats. In words: Behavioral response to graded colorectal distention (CRD) in neonatally acetic acid sensitized rats. The experiment is classed as in vivo, Sprague Dawley rat. The following applies: oral, 1.5 mg/kg body weight in corn oil daily for two weeks; graded CRD 10 mm-80 mm Hg; behavioral response grading 0-3. Here is the method:
Neonatal sensitization with acetic acid: Description of the model. It was previously shown that transient noxious stimulation of the colon during postnatal development can cause long-lasting hyperalgesia, despite complete resolution of the initiating event. In a variation of this technique, 0.3% acetic acid was instilled into the rectum of rats at postnatal days 7-10. […] By contrast, when rats are treated with acetic acid as adults, and tested after a similar period of time, no sensitization is observed. Sprague Dawley rat pups were sensitized on neonatal day 10 with acetic acid. In brief, a thin polyethylene tubing (P-90 was introduced gently into the rectum 2 cm from the anus. 0.2 ml of 0.5% glacial acetic acid in normal saline was injected through the tube into the colo rectum. The pups were allowed to grow into adults. When the rats were approximately eight weeks old they were weighed and their behavioral responses to graded (10 mm-80 mm Hg) colo rectal distention (CRD) was determined. Under light brevital (1%) anesthesia a polyethelene tube connected to a balloon (made out of a glove finger) was guided into the colo-rectum ˜8 cms from the rectum and the tube was fastened to the tail. The open end was connected to the barostat device. The rat was put into a rat restrainer allowing limited movement. […]

Molecules are shown by their SMILES.

With `CCC(=O)OCC(=O)[C@@]1(OC(=O)CC)[C@@H](C)C[C@H]2[C@@H]3CCC4=CC(=O)C=C[C@]4(C)[C@@]3(Cl)[C@@H](O)C[C@@]21C` [beclamethasone dipropionate], the “pain threshold to graded CRD compared to the vehicle treated group” value is “higher pain threshold”.
